Series [1] addresses T1, RPA DBD-A/B (Homo sapiens, UniProt P27694).
T1 construct: we subcloned amino acids 181–432 of human RPA p70; inferred from pET15b vector and nickel-NTA purification) (N); made in house; host or cells: E. coli BL21(DE3)
The series is described as follows: Reversibility of inhibition: dialysis, then fluorescence polarization of DBD-A/B binding to F-dT12. Particulars: preincubation 30 minutes, dialysis overnight, FP with F-dT12. On the procedure: Fluorescence polarization experiments were preformed as previously described in [23]. SMIs were diluted in H1 buffer (10 mM HEPES, pH 7.2, 1 mM DTT, 0.01% NP-40, and 100 mM NaCl), and the final DMSO concentration was kept below 1%.
To assess the reversibility of select SMIs, the indicated SMI was preincubated with RPA or the DBD-A/B construct for 30 minutes at room temperature. The resulting solution was dialyzed versus 500 mL H1 buffer at 4°C using 0.5 ml, 12,000 molecular weight cut-off dialysis cassettes (Pierce). The resulting protein was recovered and concentration determined by Bradford analysis. Analysis of DNA binding activity was performed either by EMSA or FP. In each series of experiments, there was no loss of DNA binding activity in vehicle control-treated protein.
Figure 3 Irreversible inhibition of RPA DBD-A/B-DNA-binding activity by CheSS19. (a) EMSA analysis of CheSS19 inhibition of RPA DBD-A/B. Assays were performed as described in the legend to Figure 2. […] (c) Quantification of the binding data presented in panels (a) and (b). (d) Fluorescence polarization analysis of CheSS19 inactivated RPA DBD-A/B. RPA DBD-A/B was preincubated with vehicle (1% DMSO) or CheSS19 (1 pmol in 1% DMSO) for 30 minutes at 37°C. […] The protein was recovered, and DNA-binding activity measured by FP analysis of binding to an F-dT12 substrate was performed as described in “Section 2”. […]
In general terms: Fluorescence polarisation rises when a labelled molecule tumbles more slowly, as on binding a larger partner.

In series [2] the target is T2, full-length heterotrimeric RPA (Homo sapiens, UniProt P27694).
T2 construct: Human full-length, untagged heterotrimeric RPA (RPA) was purified as previously described; made in house
T2 sequence (P27694 whole entry): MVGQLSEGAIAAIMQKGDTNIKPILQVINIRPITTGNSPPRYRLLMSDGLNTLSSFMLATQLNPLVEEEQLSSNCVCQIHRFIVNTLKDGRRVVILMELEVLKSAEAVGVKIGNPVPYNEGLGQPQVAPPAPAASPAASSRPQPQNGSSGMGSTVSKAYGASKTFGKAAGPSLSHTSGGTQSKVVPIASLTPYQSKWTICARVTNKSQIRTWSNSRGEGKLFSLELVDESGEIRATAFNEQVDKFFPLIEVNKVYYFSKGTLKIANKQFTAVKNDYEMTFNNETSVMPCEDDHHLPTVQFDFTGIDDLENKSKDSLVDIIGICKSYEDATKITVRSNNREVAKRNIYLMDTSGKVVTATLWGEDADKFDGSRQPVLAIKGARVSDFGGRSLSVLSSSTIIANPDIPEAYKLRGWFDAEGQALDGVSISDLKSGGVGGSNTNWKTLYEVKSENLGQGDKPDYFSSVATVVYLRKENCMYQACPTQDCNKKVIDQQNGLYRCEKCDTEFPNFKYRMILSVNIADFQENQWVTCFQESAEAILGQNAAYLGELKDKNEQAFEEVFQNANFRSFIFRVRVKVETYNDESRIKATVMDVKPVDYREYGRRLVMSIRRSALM
T2 sequence (P15927 whole entry partner): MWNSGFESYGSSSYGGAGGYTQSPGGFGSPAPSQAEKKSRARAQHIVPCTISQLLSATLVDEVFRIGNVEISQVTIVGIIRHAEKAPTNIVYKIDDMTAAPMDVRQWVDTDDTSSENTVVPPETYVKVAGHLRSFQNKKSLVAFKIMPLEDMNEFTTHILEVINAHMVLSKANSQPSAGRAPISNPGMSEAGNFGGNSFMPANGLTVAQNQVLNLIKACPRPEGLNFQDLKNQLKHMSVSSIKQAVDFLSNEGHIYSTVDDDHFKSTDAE
T2 sequence (P35244 whole entry partner): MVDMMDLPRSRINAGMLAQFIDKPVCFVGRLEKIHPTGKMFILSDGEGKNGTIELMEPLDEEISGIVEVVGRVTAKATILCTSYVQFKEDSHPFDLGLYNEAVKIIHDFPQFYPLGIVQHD
On the set-up: method as in earlier work. The conditions noted are these: prior observation; cited from earlier work.

A short description of series [3]: Cellular activity (data not shown). The format is cell-based.
In a further series the test system is T3, E. coli SSB.
T3 construct: purchased Enzymatics, Beverly, MA
The series is described as follows: E. coli SSB binding assay (EMSA). Particulars: for effect on EcSSB binding to ssDNA (result in words): EMSA, preincubation with SMI. On the procedure:
E. coli SSB Binding Assay These EMSAs were performed similarly to those for the RPA constructs, with the following exceptions. Reactions contained 25 nM of 5′-[^32P]-labeled 3Pc3 ssDNA and 3.3 nM (assuming homotetramer formation) SSB protein (Enzymatics, Beverly, MA). Reactions (20 μL) were carried out in 20 mM HEPES, pH 7.5, 1 mM DTT, 0.01% NP-40, 100 mM NaCl and resolved by 6% native polyacrylamide gel electrophoresis at 25 mA for 2 hours. Gels were dried and quantified via phosphorimager analysis as described above.
Background: In EMSA bound probe runs differently from free probe, usually more slowly.

In series [4] the target is T1, RPA DBD-A/B. The experiment in a line: EMSA of RPA DBD-A/B binding to ssDNA. The conditions noted are these: for inhibition of DBD-A/B DNA binding (result in words): 25–200 μM inhibitor. How it is done:
DBD-A/B The sequence encoding the RPA p70 DNA-binding domains A and B was subcloned from the hrRPA plasmid (provided by Dr. Marc Wold, University of Iowa) into the pET15b (Novagen) vector, and the protein was expressed in BL21(DE3) cells (Stratagene) as previously described in [9]. Briefly, cells were grown to an OD600 of 0.8, induced with 0.5 mM isopropyl-1-thio-β-D-galactopyranoside (IPTG) at 37°C for 2-3 hours. Small-scale DBD-A/B preparations were obtained from 1 L cultures, and, following induction, cells were harvested by centrifugation at 700 × g for 30 minutes at 4°C. The pellets were suspended in Buffer A (20 mM Tris, pH 7.5, 10% glycerol, 500 mM NaCl, 10 mM β-mercaptoethanol (BME), and 1 μg/mL phenylmethanesulfonyl fluoride (PMSF), leupeptin, and pepstatin) at 1 mL/gram of cells. The cells were lysed by sonication and insoluble material sedimented at 15,000 × g for 30 minutes at 4°C. The supernatant was then loaded onto a 10 mL phosphocellulose column, equilibrated with Buffer A, and the flow-through material collected. Imidazole was added to the flow-through to a final concentration of 5 mM, which was then loaded onto a 2 mL nickel-NTA-agarose column. The column was then washed with Buffer A containing 50 mM imidazole after which protein was eluted from the column using a gradient from 50–500 mM imidazole. Fractions were analyzed for protein content using Bradford and SDS-PAGE analysis in addition to assessment of DNA binding activity as determined by anisotropy. Fractions containing the DBD-A/B protein were pooled and dialyzed overnight in Buffer B (1 mM HEPES, pH 7.2, 10 mM dithiothreitol (DTT), 50 mM NaCl, and 1 μg/mL PMSF, pepstatin, and leupeptin) and aliquots stored at −80°C.
(§1) RPA and DBD-A/B Binding EMSAs were performed as previously described in [16] using a purine rich ssDNA substrate (3Pc3). Briefly, reactions contained 12.5 nM 5′-[^32P]-labeled 3Pc3 ssDNA and the indicated concentrations of RPA or DBD-A/B. Protein was preincubated with the indicated concentration of SMI for 30 minutes at 37°C. DNA was then added and reactions incubated for additional 5 minutes at room temperature in a final reaction volume of 40 μL. Reactions were then resolved on a 6% native polyacrylamide gel and electrophoresed at 170 volts for 1 hour. Gels were dried and quantified via phosphorimager analysis and ImageQuant software (Molecular Dynamics).

In series [5] the target is T2, full-length heterotrimeric RPA. The experiment in a line: Reversibility of inhibition: dialysis, then EMSA of full-length RPA. It counts as binding. The conditions noted are these: dialysis overnight, EMSA with 34-base DNA. How it is done: as §1
To assess the reversibility of select SMIs, the indicated SMI was preincubated with RPA or the DBD-A/B construct for 30 minutes at room temperature. The resulting solution was dialyzed versus 500 mL H1 buffer at 4°C using 0.5 ml, 12,000 molecular weight cut-off dialysis cassettes (Pierce). The resulting protein was recovered and concentration determined by Bradford analysis. Analysis of DNA binding activity was performed either by EMSA or FP. […]
Figure 5 Irreversible inactivation of full-length heterotrimeric RPA by MCI13E. […] DNA binding activity of the resulting protein was assessed by EMSA using a 5′-[^32P]-ss 34-base DNA as described in “Section 2.” Lanes 1–4 predialysis, lanes 5 and 6 postdialysis.

The target is the same in series [6]. The series is described as follows: EMSA of full-length heterotrimeric RPA binding to ssDNA. The conditions noted are these: 3Pc3 ssDNA, three independent experiments, read-out: IC50 for inhibition of full-length heterotrimeric RPA. On the procedure: RPA Human full-length, untagged heterotrimeric RPA (RPA) was purified as previously described in [17].
as §1

Series [7] deals with T4, Schizosaccharomyces pombe Pot1(DBD) (Schizosaccharomyces pombe, UniProt O13988).
T4 construct: gift of Dr. Deborah Wuttke, University of Colorado, Boulder
T4 sequence (O13988 1-389): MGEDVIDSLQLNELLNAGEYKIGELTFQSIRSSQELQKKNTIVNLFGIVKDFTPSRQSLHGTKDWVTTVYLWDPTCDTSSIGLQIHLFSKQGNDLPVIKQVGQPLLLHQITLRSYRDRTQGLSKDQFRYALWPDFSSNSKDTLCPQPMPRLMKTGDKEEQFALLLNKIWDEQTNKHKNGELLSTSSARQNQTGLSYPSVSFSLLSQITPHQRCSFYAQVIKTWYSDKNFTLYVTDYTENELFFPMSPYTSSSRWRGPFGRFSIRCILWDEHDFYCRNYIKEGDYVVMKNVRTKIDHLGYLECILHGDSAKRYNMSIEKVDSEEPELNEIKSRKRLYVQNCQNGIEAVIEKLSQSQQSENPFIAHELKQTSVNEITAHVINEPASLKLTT
The experiment in a line: Schizosaccharomyces pombe Pot1(DBD) binding assay (EMSA). Particulars: 15-mer ssDNA, three independent experiments, read-out: IC50 for inhibition of SpPot1(DBD) ssDNA binding. How it is done: Schizosaccharomyces pombe Pot1(DBD) Binding Assay EMSAs were performed as described above for EcSSB. Reactions contained 25 nM of 5′-[^32P]-labeled 15-mer ssDNA and 20 nM Pot1(DBD) protein (generously provided by Dr. Deborah Wuttke, University of Colorado, Boulder). Reactions (20 μL) were carried out in 20 mM HEPES, pH 7.5, 1 mM DTT, 0.01% NP-40, 100 mM NaCl, at room temperature, and resolved by 6% native polyacrylamide gel electrophoresis at 25 mA for 2 hours. Gels were dried and quantified via phosphorimager analysis as described above.

Series [8] concerns human lung cancer cell model. Particulars: cited from earlier work.
The target of series [9] is T2, full-length heterotrimeric RPA. Particulars: highest concentration tested (100 μM); cited from earlier work.
Series [10] concerns the target RPA DBD-A/B (human, UniProt P27694 181-432). The experiment in a line: EMSA; ~50% of DNA bound at 125 nM protein; data not shown; DNA 12.5 nM; RPA/DBD-A/B EMSA: 12.5 nM DNA, protein preincubated with inhibitor 30 min at 37 C, then DNA 5 min at room temp; FP: 20 nM DNA, inhibitor diluted in H1 buffer (1).

T1 sequence (P27694 181-432): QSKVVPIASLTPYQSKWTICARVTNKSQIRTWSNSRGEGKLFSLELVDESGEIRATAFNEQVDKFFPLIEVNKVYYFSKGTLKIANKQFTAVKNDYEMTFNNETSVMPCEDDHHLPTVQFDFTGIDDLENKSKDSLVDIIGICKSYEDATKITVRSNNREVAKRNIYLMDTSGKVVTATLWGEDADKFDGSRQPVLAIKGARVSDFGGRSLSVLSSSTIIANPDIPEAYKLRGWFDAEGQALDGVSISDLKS
RPA DBD-A/B (human, UniProt P27694 181-432), sequence (P27694 181-432): as above

With `O=C1OC(=O)[C@H]2C3C=CC(CC3)[C@@H]12` [CheSS19], the “mode of inhibition of DBD-A/B after dialysis” value on RPA DBD-A/B [1] is listed as “irreversible”. In addition, in [2], the “mode of inhibition of full-length RPA” value is “irreversibly inhibited”. In series [3], the cellular activity result was “does not display any cellular activity”. Also, the “effect on EcSSB binding to ssDNA (result in words)” value (“effect on EcSSB binding to ssDNA” for short) in the series on E. coli SSB is recorded as “unaffected”.
Take `CC1(C)C2CCC1(C)C(OC(=O)CBr)C2` (stereo not drawn) [MCI13E]: the “inhibition of DBD-A/B DNA binding (result in words)” value at RPA DBD-A/B [4] (EMSA) is reported as “lack of inhibition”. For the same molecule, the “mode of inhibition of full-length RPA after dialysis” value in series [5] is on record as “inhibition was not reversed by dialysis”. The “effect on EcSSB binding to ssDNA” value in the series with E. coli SSB is “unaffected”. In addition, in [6], the IC50 came out at 16.1 µM.
For the molecule `CC1(C)C2CCC1(C)C(OC(=O)CI)C2` (stereo not drawn) [MCI13F], the “inhibition of DBD-A/B DNA binding (result in words)” value at RPA DBD-A/B [4] (EMSA) is on record as “lack of inhibition”. Further, the “effect on EcSSB binding to ssDNA” value with E. coli SSB was “unaffected”. The IC50 in series [6] turned out to be 10.1 µM.
Regarding `CCOc1ccc2cc(C3CC(c4ccc(Br)cc4)=NN3C(=O)CCC(=O)O)c(Cl)nc2c1` (stereo not drawn) [TDRL-505], the IC50 in series [7] was 15.7 ± 1.6 µM; at RPA DBD-A/B [4] (EMSA, 125 nM DBD-A/B, 12.5 nM DNA, TDRL-505 10–100 μM, read-out: half-maximal inhibition of DBD-A/B DNA binding activity), ~40 µM. Besides, in series [8], the synergy with etoposide result was “synergize”. Moreover, the synergy with cisplatin entry in [8] (human lung cancer cell model) is listed as “synergize”. Further, on RPA DBD-A/B [4] (compared with heterotrimer value of ref 12), the “half-maximal inhibition of DBD-A/B relative to intact heterotrimer” value is recorded as “about twice”. In addition, the inhibition at 100 µM on RPA DBD-A/B [4] (highest concentration tested (100 μM), read-out: inhibition of RPA DBD-A/B DNA binding) was ~90%. Also, the “decrease in EcSSB binding to ssDNA” value in the series on E. coli SSB (100 μM, highest concentration tested) is on record as ~ 20%. For the same molecule, the “effect on EcSSB binding to ssDNA” value with E. coli SSB is reported as “ineffective”. In addition, the “inhibition of RPA DNA binding” value in [9] was ~90%.
With CTAGAAAGGGGGAAGAAAGGGAAGAGGCCAGAGA (ssDNA) [34-mer], the “apparent K (half saturation)” value in the series with RPA DBD-A/B [10] is ~125 nM.

(Values after publication PMC3005895 (Journal of Nucleic Acids, 2010).)
